Broadly, the inhibition is the drop in the measured response relative to a control, in per cent. As a reminder, the GI50 is the concentration at which growth is held to half of that of the control. The IC50 is the concentration needed to halve the response being measured. A lower IC50 goes with inhibition by little substance.

Calls of active or inactive are those of the source. No cut-off for these calls is given here.

Data on five compounds can be found in ChEMBL document CHEMBL5113405, “Discovery, enantioselective synthesis of myrtucommulone E analogues as tyrosyl-DNA phosphodiesterase 2 inhibitors and their biological activities” (Eur J Med Chem, 2022).

Assay [1] concerns DU-145. The experiment in a line: Cytotoxicity against human DU-145 cells assessed as cell growth inhibition at 10 uM for 72 hrs by MTT assay. In kind it is functional. Background: Tetrazolium assays rely on reduction of a dye to a coloured formazan, in cell work by metabolically active cells.
The test system of a further assay is A549. The experiment in a line: Cytotoxicity against human A549 cells assessed as cell growth inhibition for 72 hrs by MTT assay. Type of assay: functional. Conditions: Homo sapiens, A549, 72 h.
The test system of assay [2] is DU-145. Briefly: Cytotoxicity against human DU-145 cells assessed as cell growth inhibition for 72 hrs by MTT assay. Type of assay: functional. To be noted: Homo sapiens, DU-145, 72 h.
Assay [3] deals with T1, Tyrosyl-DNA phosphodiesterase 2 (Homo sapiens, UniProt O95551).
T1 sequence (O95551 whole entry): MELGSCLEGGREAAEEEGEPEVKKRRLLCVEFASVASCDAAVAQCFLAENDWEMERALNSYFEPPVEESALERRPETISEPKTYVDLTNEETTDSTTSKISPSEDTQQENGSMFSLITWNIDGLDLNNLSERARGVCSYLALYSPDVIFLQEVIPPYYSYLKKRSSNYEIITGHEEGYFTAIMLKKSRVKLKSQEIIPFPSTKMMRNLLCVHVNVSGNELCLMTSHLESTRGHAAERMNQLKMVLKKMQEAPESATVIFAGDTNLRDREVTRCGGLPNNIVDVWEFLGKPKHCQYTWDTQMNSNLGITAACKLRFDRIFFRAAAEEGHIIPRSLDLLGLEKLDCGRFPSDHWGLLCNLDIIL
The experiment in a line: Inhibition of N-terminal His-tagged human TDP2 expressed in Escherichia coli BL21 using 4-nitrophenyl phenylphosphonate as substrate incubated for 60 mins by EDTA based chromogenic assay.

The test system of assay [4] is DU-145. Briefly: Synergistic cytotoxicity against human DU-145 cells assessed as combination index incubated for 72 hrs in presence of doxorubicin by MTT-based Chou-Talalay method. Type of assay: functional.
The test system of assay [5] is DU-145. The experiment in a line: Synergistic cytotoxicity against human DU145 cells assessed as inhibition of colony formation at 5 uM incubated for 14 days in presence of doxorubicin by crystal violet staining based analysis. In kind it is functional, cell-based. Conditions: time 14.0 day.
A short description of assay [6]: Synergistic cytotoxicity against chicken DT40 cells assessed as combination index incubated for 72 hrs in presence of etoposide by MTT-based Chou-Talalay method. Type of assay: functional, Gallus gallus.
For assay [7], the system named is DU-145. Briefly: Synergistic cytotoxicity against human DU145 cells assessed as inhibition of colony formation at 5 uM incubated for 14 days in presence of etoposide by crystal violet staining based analysis. In kind it is functional, cell-based. Conditions: time 14.0 day.
Assay [8] relates to DU-145. The experiment in a line: Synergistic cytotoxicity against human DU-145 cells assessed as combination index incubated for 72 hrs in presence of etoposide by MTT-based Chou-Talalay method. In kind it is functional.
The nature of assay [9]: Synergistic cytotoxicity against chicken DT40 cells expressing human TDP2 assessed as combination index incubated for 72 hrs in presence of etoposide by MTT-based Chou-Talalay method. Type of assay: functional, Gallus gallus.
Assay [10] relates to DU-145. Briefly: Cytotoxicity against human DU-145 cells assessed as cell growth inhibition for 72 hrs in presence of etoposide by MTT assay. In kind it is functional.
Assay [11] can be described thus: Induction of reactive oxygen species production assessed as increase in hydrogen peroxide production […] in presence of DTT by redox cycling assay. Type of assay: functional.

With `COc1cc([C@@H]2c3cc4c(cc3[C@@H](O[C@@H]3O[C@@H]5CO[C@@H](C)O[C@H]5[C@H](O)[C@H]3O)[C@H]3COC(=O)[C@H]23)OCO4)cc(OC)c1O` [ETOPOSIDE], the inhibition at 10 µM in the assay with DU-145 [1] stood at 47%. The GI50 in the assay on A549 was 10 µM; in the assay on DU-145 [2], 13 µM.

For the compound `CC(C)[C@@H]1C2=C(Oc3c1c(OCC(=O)N(C)C)cc1c3[C@@H](C(C)C)C3=C(O1)C(C)(C)C(=O)C(C)(C)C3=O)C(C)(C)C(=O)C(C)(C)C2=O`, inhibition in assay [3] was half-maximal at 5.4 µM (IC50). In addition, the values for the GI50 in the assay on A549 and with DU-145 [2] were 62 µM and 26 µM, respectively. The CI in the assay with DU-145 [4] turned out to be 0.81; in assay [6], 0.95; in the assay on DU-145 [8], 0.26; in assay [9] it was 0.48. Further, the outcome in the assay on DU-145 [5] and with DU-145 [7] was Active. Also, in the assay on DU-145 [10], the “inhibition (INH)” value turned out to be 77%.

Take `CC1(C)CCC2=C(O1)c1ccccc1C(=O)C2=O`: in assay [11], the outcome was Active.

Regarding `COc1ccc(COc2cc3c(c4c2[C@H](C(C)C)C2=C(O4)C(C)(C)C(=O)C(C)(C)C2=O)[C@@H](C(C)C)C2=C(O3)C(C)(C)C(=O)C(C)(C)C2=O)cc1`, in [3], the midpoint of inhibition, the IC50, lay at 56 µM. Also, the figures for the GI50 in the assay with A549 and in the assay with DU-145 [2] were 32 µM and 40 µM, respectively.

In assay [3], `CC(C)[C@@H]1C2=C(Oc3c1c(OCCCc1ccccc1)cc1c3[C@@H](C(C)C)C3=C(O1)C(C)(C)C(=O)C(C)(C)C3=O)C(C)(C)C(=O)C(C)(C)C2=O` registered an IC50 of 26 µM. In addition, the results for the GI50 in the assay with A549 and with DU-145 [2] were 43 µM and 29 µM, respectively.
